In patent US20130079345A1, “[…] ACTIVE DISUBSTITUTED TRIAZINE DERIVATIVES” (BAYER INTELLECTUAL PROPERTY GMBH, priority 2010, published 2013):
Where a name gives a salt, the structure may show the parent alone.

Assays:
CDK9/CycT1 = target: T1, CDK9/CycT1 (Homo sapiens, UniProt P50750); assay: CDK9/CycT1 kinase assay (TR-FRET); type: biochemical; conditions: ATP 10 μM
T1 construct: Recombinant full-length His-tagged human CDK9 and CycT1; His; purchased Invitrogen PV4131; host or cells: insect cells
T1 sequence (P50750 whole entry): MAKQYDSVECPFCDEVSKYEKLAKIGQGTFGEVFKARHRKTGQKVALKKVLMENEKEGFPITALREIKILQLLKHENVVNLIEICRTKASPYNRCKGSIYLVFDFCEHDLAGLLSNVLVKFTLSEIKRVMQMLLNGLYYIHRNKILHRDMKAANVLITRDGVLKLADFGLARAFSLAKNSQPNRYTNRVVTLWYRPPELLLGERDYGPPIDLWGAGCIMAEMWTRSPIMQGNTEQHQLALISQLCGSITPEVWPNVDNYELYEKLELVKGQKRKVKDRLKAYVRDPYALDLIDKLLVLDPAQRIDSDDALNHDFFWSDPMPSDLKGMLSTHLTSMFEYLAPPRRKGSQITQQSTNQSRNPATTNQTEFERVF
T1 sequence (O60563 whole entry partner): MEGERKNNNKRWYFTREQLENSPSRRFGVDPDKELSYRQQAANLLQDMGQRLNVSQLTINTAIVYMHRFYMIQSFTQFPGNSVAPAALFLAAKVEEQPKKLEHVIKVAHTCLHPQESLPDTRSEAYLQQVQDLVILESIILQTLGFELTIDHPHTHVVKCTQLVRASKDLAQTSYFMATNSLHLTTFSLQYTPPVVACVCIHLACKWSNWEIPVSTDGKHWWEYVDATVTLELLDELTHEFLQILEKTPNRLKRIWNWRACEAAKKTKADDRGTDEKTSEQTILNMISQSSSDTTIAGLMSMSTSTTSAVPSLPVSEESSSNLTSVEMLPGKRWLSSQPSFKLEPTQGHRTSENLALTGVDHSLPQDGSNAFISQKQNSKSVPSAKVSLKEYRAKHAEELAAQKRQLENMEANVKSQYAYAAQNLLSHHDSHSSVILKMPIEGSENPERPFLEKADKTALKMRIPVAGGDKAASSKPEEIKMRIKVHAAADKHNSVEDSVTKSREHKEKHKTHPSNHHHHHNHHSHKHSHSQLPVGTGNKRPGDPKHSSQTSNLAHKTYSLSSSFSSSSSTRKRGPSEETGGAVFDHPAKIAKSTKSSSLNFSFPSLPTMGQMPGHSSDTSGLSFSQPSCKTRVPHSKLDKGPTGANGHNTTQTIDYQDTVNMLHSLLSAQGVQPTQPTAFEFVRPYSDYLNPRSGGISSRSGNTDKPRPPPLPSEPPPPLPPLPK
Text: CDK9/CycT1-inhibitory activity of compounds of the present invention was quantified employing the CDK9/CycT1 TR-FRET assay as described in the following paragraphs.
Recombinant full-length His-tagged human CDK9 and CycT1, expressed in insect cells and purified by Ni-NTA affinity chromatography, were purchased from Invitrogen (catalogue number PV4131). A biotinylated peptide biotin-Ttds-[…] (C-terminus in amide form), which can be purchased from e.g the company JERINI Peptide Technologies (Berlin, Germany), was used as a substrate for the kinase reaction.
(§1) For the assay, 50 nl of a 100-fold concentrated solution of the test compound in DMSO was pipetted into a well of a black low-volume 384-well microtiter plate (Greiner Bio-One, Frickenhausen, Germany), 2 μl of a solution of CDK9/CycT1 in aqueous assay buffer [50 mM Tris/HCl pH 8.0], 10 mM MgCl2, 1.0 mM dithiothreitol, 0.1 mM sodium ortho-vanadate, 0.01% (v/v) Nonidet-P40 (Sigma)] were added. The mixture was incubated at 22° C. for 15 min to allow pre-binding of the test compounds to the enzyme before the start of the kinase reaction. […] The resulting mixture was incubated at 22° C. for a reaction time of 25 minutes. The concentration of CDK9/CycT1 was adjusted depending of the activity of the enzyme lot and was chosen appropriately for measurements in the linear range of the assay. Typical concentrations were in the range of 1 μg/ml. The reaction was stopped by the addition of 5 μl of a solution of TR-FRET detection reagents (0.2 μM streptavidine-XL and 1 nM anti-RB(pSer807/pSer811)-antibody from BD Pharmingen [#558389] and 1.2 nM LANCE EU-W1024 labeled anti-mouse IgG antibody [Perkin-Elmer, product no. AD0077]) in an aqueous EDTA-solution (100 mM EDTA, 0.2% (w/v) bovine serum albumin in 100 mM HEPES/NaOH, pH 7.0).
(§2) The resulting mixture was incubated at 22° C. for one hour to allow the formation of a complex between the phosphorylated biotinylated peptide and the detection reagents. Subsequently, the amount of phosphorylated substrate was evaluated by measurement of the resonance energy transfer from the Eu-chelate to the streptavidine-XL. Therefore, the fluorescence emissions at 620 nm and 665 nm after excitation at 350 nm were measured in a HTRF reader, e.g. a Rubystar (BMG Labtechnologies, Offenburg, Germany) or a Viewlux (Perkin-Elmer). The ratio of the emissions at 665 nm and at […] was taken as a measure for the amounts of phosphorylated substrate. The data were normalised, i.e. enzyme reaction without inhibitor corresponds to 0% inhibition, and all other assay components in the absence of the enzyme correspond to 100% inhibition. IC50 values were calculated by a 4-parameter fit using in-house software.

CDK2/CycE = target: T2, CDK2/CycE (Homo sapiens, UniProt P24941); assay: CDK2/CycE kinase assay (TR-FRET); type: biochemical; conditions: ATP 10 μM
T2 construct: GST; purchased ProQinase GmbH (Freiburg, Germany); host or cells: insect cells (Sf-9)
Text: CDK2/CycE-inhibitory activity of compounds of the present invention was quantified employing the CDK2/CycE TR-FRET assay as described in the following paragraphs.
Recombinant fusion proteins of glutathione S-transferase (GST) and human CDK2 and of GST and human CycE, expressed in insect cells (Sf-9) and purified by glutathion-sepharose affinity chromatography, were purchased from ProQinase GmbH (Freiburg, Germany). A biotinylated peptide biotin-Ttds-[…] (C-terminus in amide form), which can be purchased from e.g the company JERINI Peptide Technologies (Berlin, Germany), was used as a substrate for the kinase reaction.
as §1, with “of CDK2/CycE” for “of CDK9/CycT1”, “for” for “for a reaction time of”, “depending on” for “depending of”, “of 130 ng/ml.” for “of 1 μg/ml.”
as §2, with “measuring” for “measurement of”, “high time-resolved fluorometry (HTRF)” for “HTRF”

Compound	IC50 (CDK9/CycT1; values in nM)	IC50 (CDK2/CycE; values given in μM)	IC50 (CDK2/CycE; values in nM)	IC50 (CDK9/CycT1; values given in μM)
CNS(=O)(=O)Cc1cccc(Nc2cc(-c3ccccc3OC)ncn2)c1 [Ref2, C-{3-[6-(2-Methoxy-phenyl)-pyrimidin-4-ylamino]-phenyl}-N-methyl methanesulfonamide, reference compound]	40 nM	1.6 µM	–	–
NS(=O)(=O)Cc1cccc(Nc2ncnc(-c3ccccc3Oc3ccccc3)n2)c1 [Compound B14, 1-(3-{[4-(2-phenoxyphenyl)-1,3,5-triazin-2-yl]amino}phenyl)methanesulfonamide]	62 nM	4 µM	–	–
NS(=O)(=O)Cc1cccc(Nc2ncnc(-c3ccccc3OCc3ccccc3)n2)c1 [Compound B13, 3-[(4-(2-Benzyloxyphenyl)-1,3,5-triazin-2-yl)amino]benzenemethanesulfonamide]	3.2 nM	–	0.38 µM	–
COc1cc(F)ccc1-c1ncnc(Nc2cccc(CS(N)(=O)=O)c2)n1 [B2′, 1-(3-{[4-(4-fluoro-2-methoxyphenyl)-1,3,5-triazin-2-yl]amino}phenyl)methanesulfonamide hydrochloride]	14 nM	–	0.67 µM	–
COc1ccccc1-c1ncnc(Nc2cccc(CS(N)(=O)=O)c2)n1 [Compound B1, 3-[(4-(2-Methoxyphenyl)-1,3,5-triazin-2-yl)amino]benzenemethanesulfonamide]	21 nM	1.8 µM	–	–
COc1ccccc1-c1cc(Nc2cccc(CS(=O)(=O)N(C)C)c2)ncn1 [Ref4, C-{3-[6-(2-Methoxy-phenyl)-pyrimidin-4-ylamino]-phenyl}-N,N-dimethylmethanesulfonamide, reference compound]	49 nM	2.7 µM	–	–
COc1cc(F)ccc1-c1ncnc(Nc2cccc(CS(N)(=O)=O)c2)n1 [Compound B2, 3-[(4-(4-Fluoro-2-methoxyphenyl)-1,3,5-triazin-2-yl)amino]benzenemethanesulfonamide]	8.1 nM	–	0.93 µM	–

Next, values leading:

IC50 (CDK9/CycT1; values in nM)	IC50 (CDK2/CycE; values given in μM)	IC50 (CDK2/CycE; values in nM)	IC50 (CDK9/CycT1; values given in μM)	Compound
28 nM	–	0.88 µM	–	CC(C)Oc1cc(F)ccc1-c1ncnc(Nc2cccc(CS(N)(=O)=O)c2)n1 [Compound U2, 1-[3-({4-[4-fluoro-2-(propan-2-yloxy)phenyl]-1,3,5-triazin-2-yl}amino)phenyl]methanesulfonamide]
14 nM	–	0.93 µM	–	COc1cc(F)c(F)cc1-c1ncnc(Nc2cccc(CS(N)(=O)=O)c2)n1 [Compound U7, 1-(3-{[4-(4,5-difluoro-2-methoxyphenyl)-1,3,5-triazin-2-yl]amino}phenyl)methanesulfonamide]
–	14 µM	–	3300 nM	N#Cc1cc(F)ccc1-c1ncnc(Nc2cccc(CS(N)(=O)=O)c2)n1 [Compound U3, 1-(3-{[4-(2-cyano-4-fluorophenyl)-1,3,5-triazin-2-yl]amino}phenyl)methanesulfonamide]
320 nM	–	0.17 µM	–	COc1cc(F)ccc1-c1ncnc(Nc2ccc(S(C)(=O)=O)nc2)n1 [Compound U8, 4-(4-fluoro-2-methoxyphenyl)-N-[6-(methylsulfonyl)pyridin-3-yl]-1,3,5-triazin-2-amine]
